The results in this text go back to patent US7521527B2 (Societe de Conseils de Recherches et d'Applications …, priority 2003, dated 2009).

As usually defined, the solubility is the dissolved amount per volume that the medium holds. Read a low solubility as little dissolved substance.

Converted amounts (≈) assume the structure as drawn. Where a SMILES comes first, the peptide text is derived from it. [ ]: non-standard residue; d: D form. Aib = CC(C)(N)C(=O)O

Series [1] in a line: Aqueous solubility of compound vs zinc concentration. It is filed as physicochemical. The note with it: aqueous saline, pH 7.0, room temperature. On the procedure: Compounds that may advantageously be used to practice the invention can be and were tested to determine their solubility in pH 7 water at different zinc concentrations using the following procedure.
A stock zinc solution was prepared by dissolving ZnCl2 in de-ionized water to a concentration of 100 mg/ml and adjusting the pH to 2.7 using HCl. Solutions having various ZnCl2 concentrations (“Zn Test Solutions”) were prepared by making appropriate dilutions of the stock solution.
1 mg of the compound of Example 1 was dissolved in 250 μl of each Zn Test Solution to yield a solution having 4 mg/ml of the Example 1 compound. […] The precipitation solution was centrifuged and the mother liquor analyzed using HPLC. The UV absorption area of test compound peak was measured and the concentration of the test compound in the mother liquor was determined via comparison to a calibration curve.
As a representative example of a compound that may be used to practice the invention, the compound of Example 1 was tested in the immediately foregoing assay and the following results were obtained (aqueous saline, pH 7.0, room temperature): […]

Series [2] has as its system adult male Sprague-Dawley rats. Description: In vivo assay G.1/G.2: insulin secretion after iv glucose challenge following sc injection. The arrangement: species or system rat. The settings on record: clear solution pH 4.0 with zinc (Preparation D), sc 75 μg/kg, fasted rats, iv glucose 1 g/kg at 0.25-24 h. On the procedure: The day prior to the experiment, adult male Sprague-Dawley rats (Taconic, Germantown, N.Y.) that weighed approximately 300-350g were implanted with a right atrial jugular cannula under chlorohydrate anesthetic. The rats were then fasted for 18 hours prior to the injection of the appropriate test composition or vehicle control at time 0. The rats continued to be fasted throughout the entire experiment.
At time zero the rats were injected subcutaneously (sc) either with (a) the compound of Example 1 (Aib^8,^35, Arg^26,^34, Phe^31)hGLP-1(7-36)NH2) at pH 4.0 as a clear solution (i.e., the solution of Preparation D.), or (b) the compound of Example 1 at pH 7.0 as a suspension or gel (i.e., the suspension or gel of Preparation E.). […] At the appropriate time after the sc injections a 500 μl blood sample was withdrawn via the intravenous (iv) cannula and the rats were given an iv glucose challenge to test for the presence of enhanced insulin secretion. The times of the glucose challenge were 0.25, 1, 6, 12 and 24 hours post-compound injection. After the initial blood sample was withdrawn glucose (1 g/kg) was injected iv and flushed in with 500 μl heparinized saline (10U/mL). […] The amount of insulin in each sample was determined using a rat insulin enzyme-linked immunosorbant assay (ELISA) kit (American Laboratory Products Co., Windham, N.H.). […]

On to `CC[C@H](C)[C@H](NC(=O)[C@H](Cc1ccccc1)NC(=O)[C@H](CCC(=O)O)NC(=O)[C@H](CCCNC(=N)N)NC(=O)[C@H](C)NC(=O)[C@H](C)NC(=O)[C@H](CCC(N)=O)NC(=O)CNC(=O)[C@H](CCC(=O)O)NC(=O)[C@H](CC(C)C)NC(=O)[C@H](Cc1ccc(O)cc1)NC(=O)[C@H](CO)NC(=O)[C@H](CO)NC(=O)[C@@H](NC(=O)[C@H](CC(=O)O)NC(=O)[C@H](CO)NC(=O)[C@@H](NC(=O)[C@H](Cc1ccccc1)NC(=O)[C@@H](NC(=O)CNC(=O)[C@H](CCC(=O)O)NC(=O)C(C)(C)NC(=O)[C@@H](N)Cc1c[nH]cn1)[C@@H](C)O)[C@@H](C)O)C(C)C)C(=O)N[C@@H](C)C(=O)N[C@@H](Cc1ccccc1)C(=O)N[C@@H](CC(C)C)C(=O)N[C@H](C(=O)N[C@@H](CCCNC(=N)N)C(=O)NC(C)(C)C(=O)N[C@@H](CCCNC(=N)N)C(N)=O)C(C)C` [Example 1, (Aib^8,^35, Arg^26,^34, Phe^31)hGLP-1(7-36)NH2] (H-H[Aib]EGTFTSDVSSYLEGQAAREFIAFLVR[Aib]R-NH2), for which the solubility was determined as 53.9 µg/mL (≈ 16.1 µM) in series [1] (pH 7, ZnCl2 concentration 0 μg/mL); 5.9 µg/mL (≈ 1.76 µM) in series [1] (pH 7, ZnCl2 concentration 80 μg/mL); 5.6 µg/mL (≈ 1.67 µM) in series [1] (pH 7, ZnCl2 concentration 500 μg/mL); 9.7 µg/mL (≈ 2.89 µM) in series [1] (pH 7, ZnCl2 concentration 1000 μg/mL); 9.7 µg/mL (≈ 2.89 µM) in series [1] (pH 7, ZnCl2 concentration 1500 μg/mL); 11 µg/mL (≈ 3.28 µM) in series [1] (pH 7, ZnCl2 concentration 2500 μg/mL).
For (Aib^8,35)hGLP1(7-36)NH2, the “duration of sustained insulin-enhancing activity inducible by glucose injection” value in series [2] amounted to 24 h.
